Laboratory results as given in US7635693B2, “Methods for preventing and treating cancer using N-thiolated β-lactam compounds and analogs thereof” (University of South Florida, priority 2002, dated 2009).
Read-outs that look alike come from different tables or passages of the source.

How the values were obtained:
[1] = tested on: caspase-3; assay: Cell-free caspase-3 activity assay on extracts of treated Jurkat T cells; assay type: cell-based, human
Method: Briefly, a prepared protein extract (20 μg) is incubated in a buffer containing 50 mM Tris/pH 8.0 along with each respective caspase substrate at 20 μM in a 96 well plate. The reaction mixture is incubated at 37° C. for 2 h.
A library of β-lactam analogs was screened for their ability to induce apoptosis. The screening procedure is accomplished by treating human Jurkat T cells with each compound at 50 μM for 8 hours. This is followed by preparation of cell lysates and measurement of apoptosis-specific caspase-3 activation (by cell-free caspase-3 activity assay) and PARP cleavage (by Western blotting).

[2] = tested on: PARP; assay: PARP cleavage, Western blot, Jurkat T cells; assay type: cell-based, human
Source text: A library of β-lactam analogs was screened for their ability to induce apoptosis. […] This is followed by preparation of cell lysates and measurement of apoptosis-specific caspase-3 activation (by cell-free caspase-3 activity assay) and PARP cleavage (by Western blotting).

[3] = tested on: Jurkat T cells; details: for inhibition of 3H-thymidine incorporation: Jurkat T cells
Method: Incorporation of ^3H-thymidine into cells was measured as disclosed in Smith D M and Dou Q P, 2001, Green tea polyphenol epigallocatechin inhibits DNA replication and consequently induces leukemia cell apoptosis. Int J Mol Med 7:645-52. Jurkat T cells are pre-treated with a selected lactam for the indicated number of hours, followed by co-incubation with 2 μl/ml of [methyl-^3H]-thymidine [80 Ci (1.5 TBq)/mMol] at 37° C. for 2 hours. After harvesting, the cell pellet is washed with PBS, resuspended in 0.5 ml of PBS and collected on a glass microfiber filter. The filter is then washed with 5 ml/filter of PBS, followed by 5 ml/filter of ice-cold 0.1N NaOH and 5 ml/filter of ethanol. The filters containing fixed DNA are dried, and the remaining radioactivity is measured on a scintillation counter.

[4] = tested on: Jurkat T cells; assay: TUNEL assay (DNA strand breaks), Jurkat T cells; assay type: cell-based, human; details: 50 μM
Method: Terminal deoxynucleotidyl transferase-mediated UTP nick end labeling (TUNEL) was performed to determine the extent of DNA strand breaks. TUNEL assay was performed with an APO-Direct kit per the manufacturer's instructions. In brief, cells are fixed in 1% paraformaldehyde and ethanol at […] overnight and then permeabilized with Proteinase K. After permeabilization, Fluorescein conjugated dNTP's and TdT enzyme (Terminal Deoxynucleotidyl Transferase) are added to the cells. The TdT enzyme is then able to label free ends of DNA with Fluorescein conjugated dNTPs that could then be detected by flow cytometry.
The assay was performed following manufacturer's instruction using the APO-Direct kit. In brief, the harvested cells were fixed in 1% paraformaldehyde for 15 min on ice, washed with PBS, and then fixed again in 70% ethanol at −20° C. overnight. The cells were then incubated in DNA labeling solution (containing terminal deoxynucleotidyl transferase (TdT) enzyme, fluorescein-conjugated dUTP and reaction buffer) for 90 min at 37° C. After removing the DNA labeling solution by rinsing cells with Rinsing Buffer, the cells were incubated with the Propidium Iodide/RNase A solution, incubated for 30 min at room temperature in the dark, and then analyzed by flow cytometry within 3 h of staining.

[5] = tested on: PARP; details: YT cells
Method: Human Jurkat T cells and human prostate cancer LNCaP cells were cultured in RPMI 1640 medium, supplemented with 10% fetal bovine serum, 100 units/ml penicillin, and 100 μg/ml streptomycin. Human YT cells were cultured in RPMI 1640 medium supplemented with 1 mM MEM sodium pyruvate solution, 0.1 mM MEM non-essential amino acids solution, 10% fetal bovine serum, 100 units/ml penicillin, and 100 μg/ml streptomycin. All cell lines were maintained at 37° C. in a humidified incubator with an atmosphere of 5% CO2. […] Briefly, cells were harvested, washed with PBS and homogenized in a lysis buffer (50 mM Tris-HCl, pH 8.0, 5 mM EDTA, 150 mM NaCl, 0.5% NP-40, 0.5 mM phenylmethylsulfonyl fluoride, and 0.5 mM dithiothreitol) for 30 min at 4° C. Afterwards, the lysates were centrifuged at 12000×g for 15 min at 4° C. and the supernatants collected as whole-cell extracts. Equal amounts of protein extract (60 μg) were resolved by SDS-polyacrylamide gel electrophoresis and transferred to a nitrocellulose membrane (Schleicher & Schuell, Keene, N. H.) using a Semi-Dry Transfer System (Bio-Rad, Hercules, Calif.). The enhanced chemiluminescence Western blot analysis was then performed using specific antibodies to the proteins of interest.

[6] = tested on: VA-13 cells; details: 50 μM
Method: (§1) (FIG. 19A) MTT assay. (FIG. 19B) Cell-free caspase-9 activity assay. A protein extract (20 μg) is incubated with 20 μM Ac-LEHD-AFC (the specific caspase-9 substrate) in a 96-well plate at 37° C. for 2 h. After incubation, the liberated florescent AFC groups are measured by Wallac Victor 1420 Multilabel counter with 405/535 nm filters. […] Both intact and active forms of caspase-3 are indicated. […] Both detached and attached populations of Va-13 or WI-38 cells are collected, and used for nuclear staining assay with DNA staining dye Hoechst 33342.
(§2) An MTT assay was performed in a 96-well plate, which measures cellular mitochondrial function and thereby cytotoxicity.

[7] = tested on: WI-38 cells; details: 50 μM
Method: as §1, §2

COC1C(=O)N(SC)C1c1ccccc1Cl (racemic) [lactam 1]
time at which cell-free caspase-3 activity was first observed ([1]; 50 μM): 4 h
caspase-3 activation ([1]; 50 μM, 8 hours): greatest potency
increase of caspase-3 levels over untreated cells ([1]; 8 hours, 20 μM): 2 fold
increase of caspase-3 levels over untreated cells ([1]; 8 hours, 30 μM): 3 fold
increase of caspase-3 levels over untreated cells ([1]; 8 hours, 40 μM): 5 fold
increase of caspase-3 levels over untreated cells ([1]; 8 hours, 50 μM): 11 fold
PARP cleavage ([2]; 10 μM, 24 h): induced apoptosis-specific PARP cleavage fragment p85
levels of PARP cleavage fragment p85 ([2]; 25 μM, 24 h): further increased
time at which PARP cleavage was first detected ([2]; 30 μM): 3 h
time at which PARP cleavage fragment p85 appears ([2]; 50 μM): 4 h
PARP cleavage ([2]; 50 μM, 8 hours): greatest potency
level of PARP cleavage relative to that by 50 μM of lactam 47 ([2]; 50 μM, 12 h): ~50%
PARP degradation ([2]; 50 μM, 24 h): PARP degradation was further increased
p85 PARP fragment ([2]; 8 hours, 20 μM): Low levels
p85 PARP fragment ([2]; 8 hours, 50 μM): significantly increased
intact PARP protein and p85 PARP fragment ([2]; 8 hours, 60 μM): almost complete degradation
p85 PARP fragment ([2]; 8 hours, 30 and 40 μM): further increased
inhibition of 3H-thymidine incorporation ([3]; 20 μM, 2 h pre-incubation + 2 hour co-incubation): 20%
inhibition of 3H-thymidine incorporation ([3]; 30 μM, 2 h pre-incubation + 2 hour co-incubation): 45%
inhibition of 3H-thymidine incorporation ([3]; 40 μM, 2 h pre-incubation + 2 hour co-incubation): 90%
inhibition of 3H-thymidine incorporation ([3]; 50 μM, added at the same time as 3H-thymidine, co-incubated 2 h): ~70%
inhibition of 3H-thymidine incorporation ([3]; 50 μM, pre-incubation 2 to 8 h, then 2 hour with 3H-thymidine): 95%
inhibition of 3H-thymidine incorporation ([3]; 50 or 60 μM, 2 h pre-incubation + 2 hour co-incubation): ~100%
IC50 ([3]; read-out: half-maximal inhibition value for incorporation of 3H-thymidine (IC50), intact Jurkat cells, total treatment 4 h): 32 µM
DNA strand breaks (TUNEL) ([4]; 1 hour): did not induce DNA strand breaks
cell population positive for DNA strand breaks (TUNEL) ([4]; 2 hour): more than half of the cell population
TUNEL-positive cells ([4]; 24 h): 66%
PARP cleavage ([5]; 30 μM, 3, 6, or 24 h): no PARP cleavage was observed
PARP cleavage ([5]; at even 50 μM, 24 h): no PARP cleavage was detectable
cell growth (MTT) ([6]; 6 or 24 hours): completely inhibited growth
viable cells ([6]; 120 hours): no viable VA-13 cells
cell growth (MTT) ([7]; 24 hours): slightly inhibited the cell growth
cell population ([7]; 120 hours): doubled
